Test system: Bleomycin-Induced Pulmonary Fibrosis in Mice
Experiment: Bleomycin-induced pulmonary fibrosis model in mice (Example 4)
Assay type: in vivo, C57BL/6J mice
Conditions: for Hydroxyproline Content: mouse lung tissue, Mean±SEM
Protocol: A total of 56 male C57BL/6J mice, SPF grade, aged 7-10 weeks, with a body weight range of 20-35g, were purchased from SPF (Beijing) Biotechnology Co., Ltd..
Injectable Bleomycin (BLM, 15mg/vial, batch number 20067411): Hanhui Pharmaceutical Co., Ltd. • Solvent 1: Components include purified water, citric acid, and sodium citrate, a transparent, clear liquid. • Solvent 2: Sodium chloride injection (batch number K21080307), purchased from Hanhui Pharmaceuticals Co., Ltd (formerly Hisun-Pfizer Pharmaceuticals Co., Ltd.). • Hydroxyproline (HYP) assay kit: Purchased from Merck Sigma-Aldrich.
The mice were randomly divided into the following groups, with 8 mice in each group: • Sham operation group (normal control group), • Pulmonary fibrosis model group, • Oral gavage group, • Tracheal Nebulization groups 1-4.
On Day 1 (D1), the normal control group mice were administered solvent 2 (sodium chloride injection, 1 mL/kg) via tracheal nebulization. All other groups were administered bleomycin (2 mg/kg, 1 mL/kg) via tracheal nebulization in the morning and afternoon to construct the pulmonary fibrosis model.
The oral gavage dose for mice was 100 mg/kg (calculated based on the oral dose of 60 mg/kg for rats, according to FDA guidelines, and converted for equivalent oral dosage in mice by body surface area). The tracheal nebulization doses were 0.2 mg/kg, 0.4 mg/kg, 0.8 mg/kg, and 1.6 mg/kg. Both the normal control group and the pulmonary fibrosis model group were administered solvent 1 via tracheal nebulization once a day, starting on D10 post-model induction.
Mice from each group were anesthetized on Day 22 via intraperitoneal injection of chloral hydrate (50 mg/mL, 0.1 mL/10g) and sacrificed by abdominal aorta blood collection. All animals underwent dissection, and lung tissues were preserved. The total lung weight (including animals that died unexpectedly or were euthanized) was measured. The left lung was excised and stored at below -60°C for hydroxyproline content testing. The remaining right lung tissue and bronchioles were fixed in 10% neutral-buffered formalin and processed for routine histology: paraffin embedding, sectioning, HE staining, and Masson staining.
Lung coefficient = lung weight (mg)/body weight (g). [formula] Early-stage inflammation with infiltration of inflammatory cells, followed by the proliferation of fibroblasts and excessive collagen deposition, leads to an increase in lung coefficient. Thus, the lung coefficient serves as an indirect indicator of the inflammation and fibrosis degree in mice.
Mice were weighed prior to grouping, on the model induction day, after the first drug administration, and every 3 days thereafter. […] Changes in body weight reflect the effect of the drug administration. Statistical analysis was performed using two-way ANOVA and Tukey's multiple comparison test.
Lung tissue inflammation, fibroproliferation, and other pathological changes were evaluated by optical microscopy on HE-stained sections. Masson staining was used to assess the degree of fibrosis in lung tissue. Standardized terminology was applied to classify fibrosis, inflammatory cell infiltration, alveolar hemorrhage, dilation, epithelial hyperplasia, and fibrous exudate using a 4-point scale (mild, moderate, severe, and very severe).
Hydroxyproline content in lung tissue was measured according to the instructions of the assay kit.
Statistical tests commonly used in the field, such as Student's t-test, chi-square test, Mann-Whitney U test, Kruskal-Wallis test (H test), Jonckheere-Terpstra test, and Wilcoxon test, were performed. Statistical analysis was done using SPSS (13.0) software. Results are presented as mean ± standard error. Overall differences were evaluated by One-Way ANOVA for homogeneity of variance, followed by Dunnett's test for inter-group comparisons. When normality tests failed, Kruskal-Wallis test was used for inter-group comparisons. Two-Way ANOVA and Tukey's test were used for multiple comparisons between groups. […]

O=C(O[C@@H]1Cc2c(O)cc(O)cc2O[C@@H]1c1cc(O)c(O)c(O)c1)c1cc(O)c(O)c(O)c1 [EGCG, (-)-Epigallocatechin gallate]
fibrosis score vs model group (aerosol dose 0.4mg/kg or higher, P < 0.05): significant reduction in pulmonary fibrosis
inhibiting alveolar expansion (all tracheal nebulization groups (0.2, 0.4, 0.8, 1.6mg/kg), 0.4mg/kg most effective): significant differences compared to the model group
inhibiting inflammatory cell infiltration (all tracheal nebulization groups, 0.4mg/kg best (P < 0.05)): reduced inflammatory cell infiltration
fibrosis in the lungs (Masson's staining) (inhaling 0.8mg/kg and 1.6mg/kg, D22): almost close to the level of the healthy control group
Hydroxyproline Content (D22, Inh. 0.2mg/kg once a day from D10): 2.807 ± 0.3982 µg/µL
Hydroxyproline Content (D22, Inh. 0.4mg/kg once a day from D10): 2.046 ± 0.690 µg/µL
Hydroxyproline Content (D22, Inh. 0.8mg/kg once a day from D10): 1.033 ± 0.1476 µg/µL
Hydroxyproline Content (D22, Inh. 1.6 mg/kg once a day from D10): 1.67 ± 0.1888 µg/µL
Hydroxyproline Content (D22, P.O 100mg/kg once a day from D10): 1.928 ± 0.1326 µg/µL
collagen deposition (Masson's staining) vs model group (oral administration 100 mg/kg, difference not significant, D22): decreased slightly
lung tissue histopathology (H&E staining) (oral administration 100 mg/kg, no significant difference vs model group, D22): slight improvement in lung tissue morphology
inhibiting inflammatory cell infiltration (oral administration (oral gavage) 100 mg/kg): no anti-inflammatory effect
alveolar inflammation scores vs model group (oral gavage 100 mg/kg): no significant difference
body weight (oral gavage 100 mg/kg): weight gain in the oral gavage group was slower
fibrosis score vs model group (oral gavage 100 mg/kg): did not show a significant difference
lung coefficient vs model group (oral gavage 100 mg/kg): did not show a significant difference
alveolar inflammation scores vs model group (tracheal nebulization): significantly suppressed the further development of alveolar inflammation
inhibiting alveolar hemorrhage (tracheal nebulization 0.2mg/kg and 0.4mg/kg): significantly better than the oral gavage group
lung coefficient vs model group (tracheal nebulization 0.2mg/kg and 0.4mg/kg, P < 0.01, P < 0.001): significantly reduced
body weight (tracheal nebulization 0.2mg/kg and 0.4mg/kg, significant vs model group): returned to baseline levels by Day 22
hydroxyproline content in lung tissue (in words) (tracheal nebulization 0.2mg/kg, 0.4mg/kg, and 0.8mg/kg, D22): dose-dependently reduced
inhibiting alveolar fibrous exudates (tracheal nebulization 1.6mg/kg): significant differences compared to the model group
lung tissue histopathology (H&E staining) (tracheal nebulization, best at 0.4mg/kg and 0.8mg/kg, D22): reduced alveolar interstitial proliferation
collagen deposition (Masson's staining) vs model group (tracheal nebulization, dose-response, especially 0.4mg/kg and above, D22): significantly reduced collagen deposition
